Reference: patent US10750743B2, “Pyridazinone herbicides” (E.I. DU PONT DE NEMOURS AND COMPANY, priority 2015, dated 2020)

Key:
Format in all cases: in vivo
[1] = tested on: barnyardgrass (Echinochloa crus-galli); test: Test A preemergence, directed soil spray, visual injury rating; settings: 0 is no effect, 100 is complete control
Summary of the method: (§1)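 Compounds in a surfactant-containing solvent were applied as a directed soil spray preemergence, or postemergence to plants 2-10 cm tall at the one- to two-leaf stage, in loam-sand blend. After about 10 d in the greenhouse, injury was rated visually against untreated controls on a 0-100 scale (100 = complete control).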

[2] = tested on: foxtail, giant (giant foxtail, Setaria faberii); test: as above; settings: 0 is no effect, 100 is complete control
Summary of the method: as §1

[3] = tested on: kochia (Kochia scoparia); test: as above; settings: 0 is no effect, 100 is complete control
Summary of the method: as §1

[4] = tested on: pigweed (Amaranthus retroflexus); test: as above; settings: 0 is no effect, 100 is complete control
Summary of the method: as §1

[5] = tested on: ragweed (common ragweed, Ambrosia elatior); test: as above; settings: 0 is no effect, 100 is complete control
Summary of the method: as §1

[6] = tested on: ryegrass, It. (Italian ryegrass, Lolium multiflorum); test: as above; settings: 0 is no effect, 100 is complete control
Summary of the method: as §1

[7] = tested on: barnyardgrass (Echinochloa crus-galli); test: Test B flooded paddy test, visual rating; settings: Flood, 250 g ai/ha, applied to paddy water, rated after 13 to 15 d
Summary of the method: (§2)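 Plants grown to the 2-leaf stage. At treatment, pots were flooded to 3 cm above the soil, compound was applied directly to the paddy water, and that depth was held throughout. After 13 to 15 d in the greenhouse, response was rated visually against controls on a 0 (no effect) to 100 (complete control) scale.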

[8] = tested on: ducksalad (Heteranthera limosa); test: Test B flooded paddy test, visual rating; settings: Flood, 250 g ai/ha, applied to paddy water, rated after 13 to 15 d
Summary of the method: as §2

[9] = tested on: rice (Oryza sativa); test: Test B flooded paddy test, visual rating; settings: Flood, 250 g ai/ha, applied to paddy water, rated after 13 to 15 d
Summary of the method: as §2

[10] = tested on: sedge, umbrella (small-flower umbrella sedge, Cyperus difformis); test: Test B flooded paddy test, visual rating; settings: Flood, 250 g ai/ha, applied to paddy water, rated after 13 to 15 d
Summary of the method: as §2

[11] = tested on: barnyardgrass (Echinochloa crus-galli); test: Test A postemergence application, visual injury rating; settings: 0 to 100 scale, 0 no effect, 100 complete control
Summary of the method: as §1

[12] = tested on: blackgrass (Alopecurus myosuroides); test: as above; settings: 0 to 100 scale, 0 no effect, 100 complete control
Summary of the method: as §1

[13] = tested on: corn (Zea mays); test: as above; settings: for Corn plant response rating: 0 to 100 scale, 0 no effect, 100 complete control; for Plant response rating (0 to 100 scale), Corn: 0 is no effect, 100 is complete control
Summary of the method: as §1

[14] = tested on: foxtail, giant (giant foxtail, Setaria faberii); test: as above; settings: for Foxtail, Giant plant response rating: 0 to 100 scale, 0 no effect, 100 complete control; for Plant response rating (0 to 100 scale), Foxtail, Giant: 0 is no effect, 100 is complete control
Summary of the method: as §1

[15] = tested on: galium (catchweed bedstraw, Galium aparine); test: as above; settings: for Galium plant response rating: 0 to 100 scale, 0 no effect, 100 complete control; for Plant response rating (0 to 100 scale), Galium: 0 is no effect, 100 is complete control
Summary of the method: as §1

[16] = tested on: kochia (Kochia scoparia); test: as above; settings: for Kochia plant response rating: 0 to 100 scale, 0 no effect, 100 complete control; for Plant response rating (0 to 100 scale), Kochia: 0 is no effect, 100 is complete control
Summary of the method: as §1

[17] = tested on: pigweed (Amaranthus retroflexus); test: as above; settings: for Pigweed plant response rating: 0 to 100 scale, 0 no effect, 100 complete control; for Plant response rating (0 to 100 scale), Pigweed: 0 is no effect, 100 is complete control
Summary of the method: as §1

[18] = tested on: ragweed (common ragweed, Ambrosia elatior); test: as above; settings: for Ragweed plant response rating: 0 to 100 scale, 0 no effect, 100 complete control; for Plant response rating (0 to 100 scale), Ragweed: 0 is no effect, 100 is complete control
Summary of the method: as §1

[19] = tested on: ryegrass, It. (Italian ryegrass, Lolium multiflorum); test: as above; settings: for Ryegrass, It. plant response rating: 0 to 100 scale, 0 no effect, 100 complete control; for Plant response rating (0 to 100 scale), Ryegrass, It.: 0 is no effect, 100 is complete control
Summary of the method: as §1

[20] = tested on: wheat (Triticum aestivum); test: as above; settings: for Wheat plant response rating: 0 to 100 scale, 0 no effect, 100 complete control; for Plant response rating (0 to 100 scale), Wheat: 0 is no effect, 100 is complete control
Summary of the method: as §1

Structure (SMILES)	Plant response rating (0 to 100 scale), Barnyardgrass ([1]; 31 g ai/ha)	Plant response rating (0 to 100 scale), Barnyardgrass ([1]; 125 g ai/ha)	Plant response rating (0 to 100 scale), Foxtail, Giant ([2]; 31 g ai/ha)	Plant response rating (0 to 100 scale), Foxtail, Giant ([2]; 125 g ai/ha)	Plant response rating (0 to 100 scale), Kochia ([3]; 31 g ai/ha)	Plant response rating (0 to 100 scale), Kochia ([3]; 125 g ai/ha)	Plant response rating (0 to 100 scale), Pigweed ([4]; 31 g ai/ha)	Plant response rating (0 to 100 scale), Pigweed ([4]; 125 g ai/ha)	Plant response rating (0 to 100 scale), Ragweed ([5]; 31 g ai/ha)	Plant response rating (0 to 100 scale), Ragweed ([5]; 125 g ai/ha)	Plant response rating (0 to 100 scale), Ryegrass, It. ([6]; 31 g ai/ha)	Plant response rating (0 to 100 scale), Ryegrass, It. ([6]; 125 g ai/ha)	Barnyardgrass plant response rating (0 to 100 scale, 0 is no effect, 100 is complete control) [7]	Ducksalad plant response rating (0 to 100 scale, 0 is no effect, 100 is complete control) [8]	Rice plant response rating (0 to 100 scale, 0 is no effect, 100 is complete control) [9]	Sedge, Umbrella plant response rating (0 to 100 scale, 0 is no effect, 100 is complete control) [10]	Barnyardgrass plant response rating ([11]; 31 g ai/ha)	Barnyardgrass plant response rating ([11]; 125 g ai/ha)	Blackgrass plant response rating ([12]; 31 g ai/ha)	Blackgrass plant response rating ([12]; 125 g ai/ha)	other results
CCC(=O)Oc1c(C)nn(C)c(=O)c1-c1ccc(Cl)c2cc(C)oc12 [Compound 41]	0	70	20	80	0	0	0	90	0	70	90	100	20	20	0	75	20	50	20	50	Corn plant response rating ([13]; 31 g ai/ha): 0; Corn plant response rating ([13]; 125 g ai/ha): 20; Foxtail, Giant plant response rating ([14]; 31 g ai/ha): 20; Foxtail, Giant plant response rating ([14]; 125 g ai/ha): 60; Galium plant response rating ([15]; 31 g ai/ha): 90; Galium plant response rating ([15]; 125 g ai/ha): 100; Kochia plant response rating ([16]; 31 g ai/ha): 0; Kochia plant response rating ([16]; 125 g ai/ha): 0; Pigweed plant response rating ([17]; 31 g ai/ha): 40; Pigweed plant response rating ([17]; 125 g ai/ha): 70; Ragweed plant response rating ([18]; 31 g ai/ha): 80; Ragweed plant response rating ([18]; 125 g ai/ha): 80; Ryegrass, It. plant response rating ([19]; 31 g ai/ha): 90; Ryegrass, It. plant response rating ([19]; 125 g ai/ha): 100; Wheat plant response rating ([20]; 31 g ai/ha): 0; Wheat plant response rating ([20]; 125 g ai/ha): 0
COC(=O)Oc1c(C)nn(C)c(=O)c1-c1c(C)ccc2cc(C)oc12 [Compound 17]	0	0	0	10	40	100	30	100	30	90	40	90	0	0	0	0	10	20	10	40	Corn plant response rating ([13]; 31 g ai/ha): 0; Corn plant response rating ([13]; 125 g ai/ha): 0; Foxtail, Giant plant response rating ([14]; 31 g ai/ha): 20; Foxtail, Giant plant response rating ([14]; 125 g ai/ha): 50; Galium plant response rating ([15]; 31 g ai/ha): 80; Galium plant response rating ([15]; 125 g ai/ha): 100; Kochia plant response rating ([16]; 31 g ai/ha): 70; Kochia plant response rating ([16]; 125 g ai/ha): 90; Pigweed plant response rating ([17]; 31 g ai/ha): 60; Pigweed plant response rating ([17]; 125 g ai/ha): 100; Ragweed plant response rating ([18]; 31 g ai/ha): 70; Ragweed plant response rating ([18]; 125 g ai/ha): 80; Ryegrass, It. plant response rating ([19]; 31 g ai/ha): 50; Ryegrass, It. plant response rating ([19]; 125 g ai/ha): 100; Wheat plant response rating ([20]; 31 g ai/ha): 0; Wheat plant response rating ([20]; 125 g ai/ha): 0
Cc1cc2c(-c3c(O)c(C)nn(C)c3=O)c(C)ccc2s1 [Compound 72]	0	30	0	40	0	40	70	70	70	90	90	100	0	0	0	0	30	40	40	80	Plant response rating (0 to 100 scale), Corn ([13]; 31 g ai/ha): 0; Corn plant response rating ([13]; 125 g ai/ha): 0; Plant response rating (0 to 100 scale), Foxtail, Giant ([14]; 31 g ai/ha): 30; Foxtail, Giant plant response rating ([14]; 125 g ai/ha): 60; Plant response rating (0 to 100 scale), Galium ([15]; 31 g ai/ha): 90; Galium plant response rating ([15]; 125 g ai/ha): 100; Plant response rating (0 to 100 scale), Kochia ([16]; 31 g ai/ha): 70; Kochia plant response rating ([16]; 125 g ai/ha): 90; Plant response rating (0 to 100 scale), Pigweed ([17]; 31 g ai/ha): 90; Pigweed plant response rating ([17]; 125 g ai/ha): 90; Plant response rating (0 to 100 scale), Ragweed ([18]; 31 g ai/ha): 70; Ragweed plant response rating ([18]; 125 g ai/ha): 90; Plant response rating (0 to 100 scale), Ryegrass, It. ([19]; 31 g ai/ha): 90; Ryegrass, It. plant response rating ([19]; 125 g ai/ha): 100; Plant response rating (0 to 100 scale), Wheat ([20]; 31 g ai/ha): 0; Wheat plant response rating ([20]; 125 g ai/ha): 0
COC(=O)Oc1c(C)nn(C)c(=O)c1-c1ccc(Cl)c2sccc12 [Compound 59]	0	0	0	0	10	20	0	0	50	30	10	10	0	0	20	0	0	0	0	0	Plant response rating (0 to 100 scale), Corn ([13]; 31 g ai/ha): 0; Corn plant response rating ([13]; 125 g ai/ha): 20; Plant response rating (0 to 100 scale), Foxtail, Giant ([14]; 31 g ai/ha): 0; Foxtail, Giant plant response rating ([14]; 125 g ai/ha): 0; Plant response rating (0 to 100 scale), Galium ([15]; 31 g ai/ha): 20; Galium plant response rating ([15]; 125 g ai/ha): 80; Plant response rating (0 to 100 scale), Kochia ([16]; 31 g ai/ha): 0; Kochia plant response rating ([16]; 125 g ai/ha): 60; Plant response rating (0 to 100 scale), Pigweed ([17]; 31 g ai/ha): 0; Pigweed plant response rating ([17]; 125 g ai/ha): 30; Plant response rating (0 to 100 scale), Ragweed ([18]; 31 g ai/ha): 0; Ragweed plant response rating ([18]; 125 g ai/ha): 0; Plant response rating (0 to 100 scale), Ryegrass, It. ([19]; 31 g ai/ha): 0; Ryegrass, It. plant response rating ([19]; 125 g ai/ha): 10; Plant response rating (0 to 100 scale), Wheat ([20]; 31 g ai/ha): 0; Wheat plant response rating ([20]; 125 g ai/ha): 0
